{
  "source": "paper PMC11229374",
  "about": "“Unlocking the potential of protein-derived peptides to target G-quadruplex DNA: from recognition to anticancer activity” (Nucleic Acids Research, 2024)",
  "key": {"[1]": {"biological_target": "HT-FANA G4", "assay": "Microscale thermophoresis (MST) binding to HT-FANA G4", "parameters": "species or system human", "settings": "25°C, 20 nM FITC-labelled peptide, DNA serial dilution, 5 mM KH2PO4/K2HPO4 pH 7.0, 20 mM KCl, 0.1% Tween, 5% DMSO", "protocol": "(§1) MST experiments were conducted using a Monolith NT.115 instrument (NanoTemper Technologies, Munich, Germany) at 25°C with medium MST power settings. […] DNA samples were also diluted using the same buffer supplemented with 0.1% Tween. During MST experiments, the concentration of the labelled peptide was kept constant at 20 nM, while a serial dilution of the investigated DNA molecules (ranging from 10 or 20 μM) was prepared and mixed with the peptide solution in a 1:1 volume ratio. All the samples, with a final concentration of 5% DMSO, were loaded into standard capillaries (NanoTemper Technologies) for MST measurements. Data analysis was carried out using the MO.Affinity Analysis (v2.3) software provided with the instrument."}, "[2]": {"test_system": "c-KIT2 G4", "assay": "CD melting, thermal stabilization of c-KIT2 G4", "assay_type": "binding, human", "settings": "CD melting at 264 nm, 5 mM KH2PO4/K2HPO4 pH 7.0, 20 mM KCl, average of three", "description": "The buffer baseline was subtracted from each spectrum."}, "[3]": {"test_system": "VEGFR-17T G4", "settings": "CD melting at 264 nm, 2 μM DNA, 1 mol equiv peptide, 5 mM KH2PO4/K2HPO4 pH 7.0, 20 mM KCl, 1°C/min; average of three; T1/2 DNA alone 53.7°C", "protocol": "(§2) CD experiments were carried out using a Jasco J-815 spectropolarimeter equipped with a PTC-423S/15 Peltier temperature controller. G4-forming and duplex-forming DNA molecules were prepared at a concentration of 2 μM in 5 mM KH2PO4/K2HPO4 buffer (pH 7.0) containing 20 mM KCl or LiCl. CD spectra of DNA/peptide mixtures were obtained by adding 1 mol equiv of peptide (stock solutions of 10 mM in H2O) with respect to the oligonucleotide. CD spectra of DNA molecules in the absence and presence of peptide were recorded at 20 and 100°C in the wavelength range of 220−320 nm and averaged over three scans, utilizing a scan rate of 100 nm/min with a 0.5 s response time and 1 nm bandwidth. The buffer baseline was subtracted from each spectrum. Additionally, CD spectra of Myb1^397–415 in the absence and presence of G4s were recorded at 20°C in the 200−250 nm wavelength range using a scan rate of 20 nm/min, with a 4 s response time and 2 nm bandwidth. The G4 spectra were subtracted from the corresponding G4/peptide mixtures to obtain information on the peptide spectrum in the presence of G4. The percentage of secondary structures adopted by the peptide in the absence and presence of the G4s was estimated using the BeStSel software ([26]). CD melting experiments were performed in the absence and presence of peptides (1 or 2 mol equiv) in the 20−100°C temperature range at 1°C/min heating rate, monitoring changes of the CD signal at wavelengths corresponding to the maximum CD intensity for the G4s (264 nm for c-KIT1, c-KIT2, c-MYC, HER2, HT-FANA, BCL-2, and VEGFR-17T; 290 nm for HRAS1, LWDLN1, HT1, and HT2) and at 252 nm for ds12 duplex. The apparent melting temperatures (T1/2) were determined using non-linear curve fitting with OriginLab© 2021 software (OriginLab Corp., MA, USA). ΔT1/2 values were calculated as the difference in the T1/2 values of the DNA structures in the presence and absence of a peptide."}, "[4]": {"test_system": "HT-FANA G4", "settings": "CD melting at 264 nm, 2 μM DNA, 1 mol equiv peptide, 5 mM KH2PO4/K2HPO4 pH 7.0, 20 mM KCl, 1°C/min; average of three; T1/2 DNA alone 62.9°C", "protocol": "as §2"}, "[5]": {"test_system": "ds12 duplex", "settings": "CD melting at 252 nm, 2 μM DNA, 1 mol equiv peptide, 5 mM KH2PO4/K2HPO4 pH 7.0, 20 mM KCl, 1°C/min; average of three; T1/2 DNA alone 62.7°C", "protocol": "as §2"}, "[6]": {"biological_target": "c-KIT1 G4", "assay": "Microscale thermophoresis (MST) binding to c-KIT1 G4", "parameters": "species or system human", "settings": "25°C, 20 nM FITC-labelled peptide, DNA serial dilution, 5 mM KH2PO4/K2HPO4 pH 7.0, 20 mM KCl, 0.1% Tween, 5% DMSO", "protocol": "as §1"}, "[7]": {"biological_target": "c-KIT2 G4", "assay": "Microscale thermophoresis (MST) binding to c-KIT2 G4", "parameters": "species or system human", "settings": "25°C, 20 nM FITC-labelled peptide, DNA serial dilution, 5 mM KH2PO4/K2HPO4 pH 7.0, 20 mM KCl, 0.1% Tween, 5% DMSO", "protocol": "as §1"}, "[8]": {"biological_target": "LWDLN1 G4", "assay": "Microscale thermophoresis (MST) binding to LWDLN1 G4", "settings": "25°C, 20 nM FITC-labelled peptide, same buffer, n.d. = not determined due to undetectable binding", "protocol": "as §1"}, "[9]": {"biological_target": "BCL-2 G4", "assay": "Microscale thermophoresis (MST) binding to BCL-2 G4", "parameters": "species or system human", "settings": "25°C, 20 nM FITC-labelled peptide, DNA serial dilution, 5 mM KH2PO4/K2HPO4 pH 7.0, 20 mM KCl, 0.1% Tween, 5% DMSO", "protocol": "as §1"}, "[10]": {"biological_target": "VEGFR-17T G4", "assay": "Microscale thermophoresis (MST) binding to VEGFR-17T G4", "parameters": "species or system human", "settings": "25°C, 20 nM FITC-labelled peptide, same buffer, n.d. = not determined due to undetectable binding", "protocol": "as §1"}, "[11]": {"biological_target": "ds12 duplex", "assay": "Microscale thermophoresis (MST) binding to ds12 duplex", "settings": "25°C, 20 nM FITC-labelled peptide, same buffer, n.d. = not determined due to undetectable binding", "protocol": "as §1"}, "[12]": {"test_system": "U2OS cells", "assay": "Viability assay (crystal violet), U2OS", "assay_type": "cell-based", "settings": "72 h treatment, unconjugated peptides", "protocol": "U2OS, HCT116 and MDA-MB-231 cells were purchased from the ATCC and grown in Dulbecco modified Eagle's medium (DMEM; EuroClone, Milan, Italy; ECM0728L) supplemented with 10% Fetal Bovine Serum (FBS, ThermoFisher Scientific/Gibco, Waltham, MA, USA; 10270-106), 2 mM L-glutamine and antibiotics in a humidified incubator at 37°C with 5% CO2 and atmospheric O2 concentration. Cell lines were authenticated and tested to be mycoplasma-free.\nU2OS, HCT116, and MDA-MB-231 cells were seeded in 24-well plates at a density of 1 × 10^4, 20 × 10^3 and 12 × 10^3 for each well, respectively. After 24 h, cells were treated with the indicated peptides and incubated at 37°C for additional 72 h. Upon treatment completion, cell medium was removed, the wells were washed twice in phosphate-buffered saline (PBS) and fixed with 4% formaldehyde for 15 min at room temperature (RT). After washing, 500 μl of crystal violet staining solution (Sigma-Aldrich, St. Louis, MO, USA) was added to each well and incubated for 30 min at RT. Finally, the plates were rinsed twice with water, air-dried and cell pellets were dissolved in 400 μl of a 10% aqueous solution of acetic acid. In total, 200 μl of each sample was transferred to a 96-well plate, and the optical density was measured at 570 nm (OD570) with an ELISA reader (Thermo Scientific, Waltham, MA, USA). The average absorbance in each condition was used to calculate the viability expressed as a percentage of treated vs untreated conditions (CTR)."}, "[13]": {"biological_target": "HT2 G4", "assay": "Microscale thermophoresis (MST) binding to HT2 G4", "parameters": "species or system human", "settings": "25°C, 20 nM FITC-labelled peptide, DNA serial dilution, 5 mM KH2PO4/K2HPO4 pH 7.0, 20 mM KCl, 0.1% Tween, 5% DMSO", "protocol": "as §1"}},
  "note": "Where “and” joins values, the source holds several entries; their conditions need not be identical. Identical values can stand only once.",
  "data": [
    {"substance": "Ac-NHTGNSIRHRFRVYLSKRL-NH2 [Myb^397–415]", "values": [
      {"measurement": "Kd", "setting": "[1]", "value": 140, "unit": "nM"},
      {"measurement": "ΔT1/2 of c-KIT2 G4", "setting": "[2]; 2 μM DNA, 1 mol equiv peptide, 1°C/min, T1/2 DNA alone 59.5°C", "value": "11.2 °C and 11.2 (±0.2) °C"},
      {"measurement": "ΔT1/2 of c-KIT2 G4", "setting": "[2]; 2 mol equiv of peptide with respect to G4, 2 μM DNA, T1/2 c-KIT2 alone 59.5°C", "value": "17.3 (±0.2) °C"},
      {"measurement": "ΔT1/2 of VEGFR-17T G4", "setting": "[3]", "value": "0.2 (±0.2) °C"},
      {"measurement": "ΔT1/2 of HT-FANA G4", "setting": "[4]", "value": "8.3 °C and 8.3 (±0.2) °C"},
      {"measurement": "ΔT1/2 of ds12 duplex", "setting": "[5]", "value": "1.0 °C and 1.0 (±0.2) °C"},
      {"measurement": "Kd", "setting": "[6]", "value": 340, "unit": "nM"},
      {"measurement": "Kd", "setting": "[7]", "value": 130, "unit": "nM"},
      {"measurement": "Kd for binding to LWDLN1 G4", "setting": "[8]", "value": "negligible binding"},
      {"measurement": "Kd", "setting": "[9]", "value": 280, "unit": "nM"},
      {"measurement": "Kd for binding to VEGFR-17T G4", "setting": "[10]", "value": "negligible binding"},
      {"measurement": "Kd for binding to ds12 duplex", "setting": "[11]", "value": "negligible"},
      {"measurement": "Impact on cancer cell viability, peptides in native form", "setting": "[12]", "value": "unable to significantly impact cancer cells viability"},
      {"measurement": "Kd", "setting": "[13]", "value": 1180, "unit": "nM"}
    ]}
  ]
}
